This passage reports IC50 results from patent publication US9938273B2 (Plexxikon Inc., priority 2015, dated 2018).

Each structure is given as a SMILES string.

Experiment [1] concerns the target T1, FLT3-ITD (Homo sapiens, UniProt P36888).
T1 sequence (P36888 1-993): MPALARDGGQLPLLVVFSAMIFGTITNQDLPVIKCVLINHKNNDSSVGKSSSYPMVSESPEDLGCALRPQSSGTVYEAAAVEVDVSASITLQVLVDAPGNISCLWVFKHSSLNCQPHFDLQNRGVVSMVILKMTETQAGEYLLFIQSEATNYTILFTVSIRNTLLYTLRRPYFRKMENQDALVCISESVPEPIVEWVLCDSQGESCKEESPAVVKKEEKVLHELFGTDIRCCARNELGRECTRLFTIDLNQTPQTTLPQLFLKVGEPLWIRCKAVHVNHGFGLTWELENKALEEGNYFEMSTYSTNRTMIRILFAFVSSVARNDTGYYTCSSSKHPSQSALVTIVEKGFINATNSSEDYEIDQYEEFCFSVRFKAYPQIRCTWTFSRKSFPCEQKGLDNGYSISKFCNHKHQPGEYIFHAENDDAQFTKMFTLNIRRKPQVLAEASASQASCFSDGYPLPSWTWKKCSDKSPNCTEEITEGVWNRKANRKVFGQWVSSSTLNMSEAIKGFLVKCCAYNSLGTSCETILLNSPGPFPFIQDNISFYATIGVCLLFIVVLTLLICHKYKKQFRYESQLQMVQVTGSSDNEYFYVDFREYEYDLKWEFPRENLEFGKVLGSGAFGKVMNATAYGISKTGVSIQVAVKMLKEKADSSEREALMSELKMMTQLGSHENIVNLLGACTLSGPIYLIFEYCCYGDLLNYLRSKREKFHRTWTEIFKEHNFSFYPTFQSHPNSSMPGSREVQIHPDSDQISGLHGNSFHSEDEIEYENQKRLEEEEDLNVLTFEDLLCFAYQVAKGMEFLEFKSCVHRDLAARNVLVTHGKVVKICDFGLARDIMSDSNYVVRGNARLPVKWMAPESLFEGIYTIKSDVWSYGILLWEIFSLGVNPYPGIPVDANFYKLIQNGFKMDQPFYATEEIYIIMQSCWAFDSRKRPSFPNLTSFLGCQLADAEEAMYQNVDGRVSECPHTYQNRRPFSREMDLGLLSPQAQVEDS
Put plainly: AlphaScreen kinase assay with recombinant enzyme, FLT3-ITD. The format is biochemical. The note with it: 8pt; read-out: FLT3_ITD 8pt: IC50. The method, boiled down:
(§1)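 Tyrosine phosphorylation of biotin-poly(Glu4-Tyr) substrate by recombinant enzyme is detected with PY20 acceptor and streptavidin donor beads after room-temperature incubations of 20 and 60 min. IC50 values were derived at a final 10 μM (FLT3-D835Y, FLT3-ITD) or 100 μM (c-KIT).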

The target in experiment [2] is T2, FLT3-D835Y (Homo sapiens, UniProt P36888, D835Y).
T2 construct: purchased Invitrogen PV3967
T2 sequence (P36888 27-993 D835Y): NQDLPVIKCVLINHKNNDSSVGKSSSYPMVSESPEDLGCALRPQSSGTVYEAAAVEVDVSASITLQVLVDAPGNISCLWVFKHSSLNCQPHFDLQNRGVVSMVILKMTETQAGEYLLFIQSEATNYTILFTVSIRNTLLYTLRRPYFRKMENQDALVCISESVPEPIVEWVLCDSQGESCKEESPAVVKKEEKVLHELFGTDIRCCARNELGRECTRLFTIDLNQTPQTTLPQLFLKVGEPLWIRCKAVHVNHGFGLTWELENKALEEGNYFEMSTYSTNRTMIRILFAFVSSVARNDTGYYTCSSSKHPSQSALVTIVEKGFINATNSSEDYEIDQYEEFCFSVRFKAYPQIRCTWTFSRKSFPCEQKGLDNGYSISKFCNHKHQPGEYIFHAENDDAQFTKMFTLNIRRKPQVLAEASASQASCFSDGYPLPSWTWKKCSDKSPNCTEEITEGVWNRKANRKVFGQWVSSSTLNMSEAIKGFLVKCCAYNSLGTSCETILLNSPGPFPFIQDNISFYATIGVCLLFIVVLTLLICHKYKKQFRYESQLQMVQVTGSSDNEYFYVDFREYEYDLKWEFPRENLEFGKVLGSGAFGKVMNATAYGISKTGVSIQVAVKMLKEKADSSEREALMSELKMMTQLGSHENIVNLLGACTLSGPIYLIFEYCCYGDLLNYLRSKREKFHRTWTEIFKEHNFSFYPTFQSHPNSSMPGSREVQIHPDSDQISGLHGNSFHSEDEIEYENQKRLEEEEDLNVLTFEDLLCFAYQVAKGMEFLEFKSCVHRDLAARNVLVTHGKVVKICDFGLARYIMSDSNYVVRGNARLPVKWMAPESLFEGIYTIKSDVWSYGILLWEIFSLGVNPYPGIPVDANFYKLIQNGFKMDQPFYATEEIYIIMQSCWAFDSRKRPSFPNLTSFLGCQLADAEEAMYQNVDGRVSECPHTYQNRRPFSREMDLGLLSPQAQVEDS
Put plainly: AlphaScreen kinase assay with recombinant enzyme, FLT3-D835Y. The format is biochemical. The note with it: 8pt, GMean. An outline of the steps: as §1
(Bead proximity is the source of the signal in Alpha formats.)

One may read the IC50 as the concentration that gives 50% inhibition.

Take `c1ccc(-c2cc3cc(-c4ccc5[nH]nc(NC6CCNCC6)c5c4)cnc3[nH]2)cc1` [Compound P-0056, 5-(2-phenyl-1H-pyrrolo[2,3-b]pyridin-5-yl)-N-(4-piperidyl)-1H-indazol-3-amine]: the IC50 in experiment [1] and in experiment [2] was 0.0001 to 10 µM throughout.
As for `N=C(N)N1CCN(C(=O)c2cccc(-c3cnc4[nH]c(-c5ccccc5)cc4c3)n2)CC1` [Compound P-0057, 4-[6-(2-phenyl-1H-pyrrolo[2,3-b]pyridin-5-yl)pyridine-2-carbonyl]piperazine-1-carboxamidine], the IC50 in experiment [1] and in experiment [2] was 0.0001 to 10 µM throughout.
In the case of `c1ccc(-c2cc3cc(-c4ccc5[nH]nc(NC6CCNC6)c5c4)cnc3[nH]2)cc1` (stereo not drawn) [Compound P-0059, 5-(2-phenyl-1H-pyrrolo[2,3-b]pyridin-5-yl)-N-pyrrolidin-3-yl-1H-indazol-3-amine], the 50% inhibitory concentration (IC50) in experiment [1] and in experiment [2] was 0.0001 to 10 µM each time.
Regarding `NC1CCCN(C(=O)c2cccc(-c3cnc4[nH]c(-c5ccccc5)cc4c3)n2)C1` (stereo not drawn) [Compound P-0067, (3-amino-1-piperidyl)-[6-(2-phenyl-1H-pyrrolo[2,3-b]pyridin-5-yl)-2-pyridyl]methanone], the IC50 in experiment [1] and in experiment [2] was 0.0001 to 10 µM in each case.
Turning to `O=C(c1cccc(-c2cnc3[nH]c(-c4ccccc4)cc3c2)n1)N1CCC(O)C1` (stereo not drawn) [Compound P-0068, (3-hydroxypyrrolidin-1-yl)-[6-(2-phenyl-1H-pyrrolo[2,3-b]pyridin-5-yl)-2-pyridyl]methanone], the IC50 in experiment [1] and in experiment [2] was 0.0001 to 10 µM each time.
In the case of `O=C(c1cccc(-c2cnc3[nH]c(-c4ccccc4)cc3c2)n1)N1CCCC(O)C1` (stereo not drawn) [Compound P-0069, (3-hydroxy-1-piperidyl)-[6-(2-phenyl-1H-pyrrolo[2,3-b]pyridin-5-yl)-2-pyridyl]methanone], the IC50 in experiment [1] and in experiment [2] was 0.0001 to 10 µM each time.
As for `NC1CCN(C(=O)c2n[nH]c3ccc(-c4cnc5[nH]c(C6=CCN(C(=O)C7CC7)C6)cc5c4)cc23)CC1` [Compound P-0074, (4-amino-1-piperidyl)-[5-[2-[1-(cyclopropanecarbonyl)-2,5-dihydropyrrol-3-yl]-1H-pyrrolo[2,3-b]pyridin-5-yl]-1H-indazol-3-yl]methanone], the IC50 in experiment [1] and in experiment [2] was 0.0001 to 10 µM each time.
Regarding `CN(C(=O)c1cccc(-c2cnc3[nH]c(-c4ccccc4)cc3c2)n1)C1CCNC1` (stereo not drawn) [Compound P-0076, N-methyl-6-(2-phenyl-1H-pyrrolo[2,3-b]pyridin-5-yl)-N-pyrrolidin-3-yl-pyridine-2-carboxamide], the IC50 in experiment [1] and in experiment [2] was 0.0001 to 10 µM throughout.
Regarding `CNC1CCCN(C(=O)c2cccc(-c3cnc4[nH]c(-c5ccccc5)cc4c3)n2)C1` (stereo not drawn) [Compound P-0080, [3-(methylamino)-1-piperidyl]-[6-(2-phenyl-1H-pyrrolo[2,3-b]pyridin-5-yl)-2-pyridyl]methanone], the IC50 in experiment [1] and in experiment [2] was 0.0001 to 10 µM in each case.
For `CC1(N)CCN(C(=O)c2cccc(-c3cnc4[nH]c(-c5ccccc5)cc4c3)n2)CC1` [Compound P-0081, (4-amino-4-methyl-1-piperidyl)-[6-(2-phenyl-1H-pyrrolo[2,3-b]pyridin-5-yl)-2-pyridyl]methanone], the IC50 in experiment [1] and in experiment [2] was 0.0001 to 10 µM in each case.
As for `CC1(N)CCCN(C(=O)c2cccc(-c3cnc4[nH]c(-c5ccccc5)cc4c3)n2)C1` (stereo not drawn) [Compound P-0082, (3-amino-3-methyl-1-piperidyl)-[6-(2-phenyl-1H-pyrrolo[2,3-b]pyridin-5-yl)-2-pyridyl]methanone], the half-maximal inhibitory concentration (IC50) in experiment [1] and in experiment [2] was 0.0001 to 10 µM each time.
`N[C@@H]1CN(C(=O)c2cccc(-c3cnc4[nH]c(-c5ccccc5)cc4c3)n2)CC12CC2` [Compound P-0083, [(7S)-7-amino-5-azaspiro[2.4]heptan-5-yl]-[6-(2-phenyl-1H-pyrrolo[2,3-b]pyridin-5-yl)-2-pyridyl]methanone]: the 50% inhibitory concentration (IC50) in experiment [1] and in experiment [2] was 0.0001 to 10 µM each time.
Turning to `CNC1CCN(Cc2cccc(-c3cnc4[nH]c(-c5ccccc5)cc4c3)n2)C1` (stereo not drawn) [Compound P-0087, N-methyl-1-[[6-(2-phenyl-1H-pyrrolo[2,3-b]pyridin-5-yl)-2-pyridyl]methyl]pyrrolidin-3-amine], the IC50 in experiment [1] and in experiment [2] was 0.0001 to 10 µM throughout.
With `O=C(c1cccc(-c2cnc3[nH]c(-c4ccccc4)cc3c2)n1)N1CCC(F)(F)CC1` [Compound P-0089, (4,4-difluoro-1-piperidyl)-[6-(2-phenyl-1H-pyrrolo[2,3-b]pyridin-5-yl)-2-pyridyl]methanone], the IC50 in experiment [1] fell in the range of 0.0001 to 10 µM; in experiment [2] it was 50 to 100 µM.
Turning to `COC(=O)C1(C)CCN(C(=O)c2cccc(-c3cnc4[nH]c(-c5ccccc5)cc4c3)n2)CC1` [Compound P-0092, methyl 4-methyl-1-[6-(2-phenyl-1H-pyrrolo[2,3-b]pyridin-5-yl)pyridine-2-carbonyl]piperidine-4-carboxylate], the IC50 in experiment [1] and in experiment [2] was 0.0001 to 10 µM each time.
